Test results: patent publication US6417174B1, “Inhibitors of β-lactamases and uses therefor” (Northwestern University, priority 1997, dated 2002)
Like-named read-outs stand apart in the source and are kept apart here.

Legend:
[1] = test system: E. coli RYC1000 harboring plasmid pBGS19 (no β-lactamase); assay: microbe, parasite or virus in culture; format: cell-based, Escherichia coli; settings: for MIC of ceftazidime plus inhibitor: Table 3A, proportion 4/1; for MIC of ceftazidime plus inhibitor / MIC of inhibitor used alone without ceftazidime: pBGS19; for MIC of inhibitor used alone without ceftazidime: Table 3B
Description: (§1) After incubation, the growth of the cells was visually inspected. The minimum inhibitory concentration (MIC) is the lowest concentration where there no cell growth was observed.
(§2) The following strains were used: Enterobacter cloacae cell line with derepressed β-lactamase production (Ent-Der), and Escherichia coli RYC1000 (araD139 D lacU169 rpsL D rib7 thiA gyrA recA56) cell lines, harboring the plasmid pBGS19 (with no β-lactamase), or the β-lactamase containing plasmids pBGAmpC (AmpC β-lactamase from E. coli; Eco-AmpC), or pBGAmpC-MHN (AmpC β-lactamase from Enterobacter cloacae; Eco-AmpCEnt). […] TEM-10 and TEM-24 differ from TEM-1 due to the following point substitutions: TEM-10 (R164S, E240K); TEM-24 (L102K, L162S, S235T, A237K). TEM-10 and TEM-24 also differ from TEM-1 in being extended spectrum enzymes (i.e., they react with a greater range of substrates than TEM-1). Also tested were clinical isolates of Pseudomonas aeruginosa. All bacterial strains and plasmids are available from Jesus Blazquez and Fernando Baquero, Servicio de Microbiologia, Hospital Ramon y Cajal, National Institute of Health, Madrid, Spain.
(§3) Several ratios, including 1:1, 2:1, 4:1, and 1:3, of β-lactam antibiotic (amoxicillin (AX) or ceftazidime (CAZ)) to boronic acid compound were used in the assays. Tazobactam (TAZO), a clinically used β-lactamase inibitor, was used as a positive control.

[2] = test system: E. coli RYC1000 harboring plasmid pBGAmpC-MHN (AmpC β-lactamase of Enterobacter cloacae); assay: microbe, parasite or virus in culture; format: cell-based, Escherichia coli; as to MIC of ceftazidime plus inhibitor: values in µg/ml
Description: as §1, §2, §3

[3] = test system: E. coli RYC1000 harboring plasmid pBGTEM-24 (TEM-24 β-lactamase); assay: microbe, parasite or virus in culture; format: cell-based, Escherichia coli; settings: for MIC of ceftazidime plus inhibitor: Table 3A, proportion 4/1, given as CAZ/inhibitor; as to MIC of ceftazidime plus inhibitor: values in µg/ml
Description: as §1, §2, §3

[4] = test system: Ps. aeruginosa-2 (clinical isolate); assay: Antibacterial activity, wider range of bacteria; format: cell-based, Pseudomonas aeruginosa; settings: Table 6
Description: (§4) Bacterial cell culture testing was performed and interpreted following the guidelines of the National Committee for Clinical Laboratory Standards (National Committee for Clinical Laboratory Standards. Methods for Dilution Antimicrobial Susceptibility Tests for Bacteria that Grow Aerobically. Approved Standard M7-A3. National Committee for Clinical Laboratory Standards, Villanova, Pa. 1993). After incubation, the growth of the cells was visually inspected. The minimum inhibitory concentration (MIC) is the lowest concentration where there no cell growth was observed.
(§5) All bacterial strains and plasmids are available from Jesus Blazquez and Fernando Baquero, Servicio de Microbiologia, Hospital Ramon y Cajal National Institute of Health, Madrid, Spain.

[5] = test system: Ps. aeruginosa-3 (clinical isolate); assay: Antibacterial activity, wider range of bacteria; format: cell-based, Pseudomonas aeruginosa; settings: Table 6
Description: as §4, §5

[6] = test system: β-lactamase derepressed strain of Enterobacter cloacae (Ent-Der); assay: microbe, parasite or virus in culture; format: cell-based; settings: for MIC of ceftazidime plus inhibitor: Table 3A, proportion 4/1, given as CAZ/inhibitor; as to MIC of ceftazidime plus inhibitor: values in µg/ml
Description: as §1, §2, §3

[7] = test system: Citrobacter freundii derrepressed (clinical isolate); assay: Antibacterial activity, wider range of bacteria; format: cell-based; settings: Table 6
Description: as §4, §5

[8] = test system: Pseudomonas aeruginosa-1 (clinical isolate); assay: Antibacterial activity, wider range of bacteria; format: cell-based; settings: Table 6
Description: as §4, §5

[9] = test system: Enterobacter cloacae derrepressed (clinical isolate); assay: Antibacterial activity, wider range of bacteria; format: cell-based; settings: Table 6
Description: as §4, §5

[10] = test system: E. coli derrepr. (clinical isolate); assay: Antibacterial activity, wider range of bacteria; format: cell-based; settings: Table 6
Description: as §4, §5

[11] = test system: E. coli RYC1000 harboring a plasmid coding for a mutant of AmpC from Enterobacter (ECR-AmpCEnM); assay: microbe, parasite or virus in culture; format: cell-based, Escherichia coli; settings: Table 4A; ECR-AmpCEnM; proportion 4/1
Description: as §1, §2, §3

[12] = test system: E. coli RYC1000 harboring pBGAmpC-E. coli producing AmpC (ECR-AmpCEc); assay: microbe, parasite or virus in culture; format: cell-based, Escherichia coli; settings: Table 4A; ECR-AmpCEc; proportion 4/1
Description: as §1, §2, §3

[13] = test system: E. coli RYC1000 harboring pBGTEM-10 producing TEM-10 β-lactamase (EC-T10); assay: microbe, parasite or virus in culture; format: cell-based, Escherichia coli; settings: Table 4A; EC-T10; proportion 4/1
Description: as §1, §2, §3

[14] = test system: E. coli RYC1000 harboring pBGTEM-1 producing TEM-1 β-lactamase (EC-T1); assay: microbe, parasite or virus in culture; format: cell-based, Escherichia coli; settings: Table 4A; EC-T1; proportion 4/1
Description: as §1, §2, §3

[15] = target: AmpC β-lactamase from E. coli (Escherichia coli, UniProt P00811); assay: biochemical; format: biochemical
Sequence of AmpC β-lactamase from E. coli (P00811 20-377): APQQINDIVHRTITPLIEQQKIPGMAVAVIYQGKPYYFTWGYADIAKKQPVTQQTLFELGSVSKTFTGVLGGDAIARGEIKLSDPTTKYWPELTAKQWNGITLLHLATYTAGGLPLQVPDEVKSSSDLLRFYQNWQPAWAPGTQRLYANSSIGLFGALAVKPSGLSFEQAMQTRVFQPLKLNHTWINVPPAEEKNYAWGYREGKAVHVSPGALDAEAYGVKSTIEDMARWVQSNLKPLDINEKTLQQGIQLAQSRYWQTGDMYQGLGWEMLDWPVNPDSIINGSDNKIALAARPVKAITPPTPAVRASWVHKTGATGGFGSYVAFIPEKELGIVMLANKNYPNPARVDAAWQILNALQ

[16] = target: T1, TEM-1 β-lactamase from E. coli (Escherichia coli, UniProt P62593); assay: Inhibition of TEM-1 β-lactamase, spectrophotometric assay (FAP substrate); format: biochemical
T1 construct: gift: Natalie Strynadka, University of Alberta
T1 sequence (P62593 24-286 limits assumed): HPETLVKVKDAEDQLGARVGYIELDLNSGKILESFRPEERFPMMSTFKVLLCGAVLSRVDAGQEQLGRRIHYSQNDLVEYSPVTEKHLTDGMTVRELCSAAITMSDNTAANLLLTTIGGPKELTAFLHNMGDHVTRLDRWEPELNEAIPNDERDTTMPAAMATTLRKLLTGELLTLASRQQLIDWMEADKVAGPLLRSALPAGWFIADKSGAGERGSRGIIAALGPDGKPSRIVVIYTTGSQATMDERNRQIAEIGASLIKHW

[17] = target: Enterobacter cloacae P99 β-lactamase (Enterobacter cloacae, UniProt P05364); settings: Dryjanski and Pratt, Biochemistry 34, 3561-3568 (1995); cited from earlier work
Sequence of Enterobacter cloacae P99 β-lactamase (P05364 21-381): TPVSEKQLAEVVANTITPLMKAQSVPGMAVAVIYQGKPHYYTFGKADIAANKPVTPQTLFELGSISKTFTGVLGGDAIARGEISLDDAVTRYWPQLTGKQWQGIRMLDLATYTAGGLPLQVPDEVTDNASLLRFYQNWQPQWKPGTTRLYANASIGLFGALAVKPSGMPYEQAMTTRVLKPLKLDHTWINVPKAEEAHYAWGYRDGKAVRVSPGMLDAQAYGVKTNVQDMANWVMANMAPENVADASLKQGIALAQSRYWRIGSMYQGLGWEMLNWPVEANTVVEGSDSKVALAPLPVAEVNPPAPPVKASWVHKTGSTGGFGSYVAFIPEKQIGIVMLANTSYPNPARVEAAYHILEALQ

OB(O)c1cc2ccccc2s1 [BZBTH2B, benzo[b]thiophene-2-boronic acid]
MIC of ceftazidime plus inhibitor [1]: <0.25 µg/mL | MIC of inhibitor used alone without ceftazidime [1]: 512 µg/mL | MIC of inhibitor used alone without ceftazidime ([2]; Table 3B, AmpC-MHN): 512 µg/mL | MIC of ceftazidime plus inhibitor [3]: 128/32 | MIC of inhibitor used alone without ceftazidime ([3]; Table 3B): 512 µg/mL | MIC, agent alone (CAZ alone / BZB only) [4]: 512 | MIC, agent alone (CAZ alone / BZB only) [5]: 512 | MIC of ceftazidime plus inhibitor ([6]; Ent. Der.): 32/8 | MIC of inhibitor used alone without ceftazidime ([6]; Table 3B, Ent. Der.): 512 µg/mL | MIC, agent alone (CAZ alone / BZB only) [7]: 128 | MIC, agent alone (CAZ alone / BZB only) [8]: 512 | MIC, agent alone (CAZ alone / BZB only) [9]: 128 | MIC, agent alone (CAZ alone / BZB only) [10]: 128

C1COB([C@@H]2CCOC2)OCCN1 [DETHFB, diethanolamine-(3R)-(+)-tetrahydrofurnylboronate]
MIC of ceftazidime plus inhibitor [1]: 0.5 µg/mL | MIC of inhibitor used alone without ceftazidime [1]: >512 µg/mL | MIC of inhibitor used alone without amoxicillin ([1]; Table 4B, EC, not tested above 128 μg/ml, “256” indicates no inhibition of cell growth): 256 µg/mL | MIC of amoxicillin plus inhibitor [11]: 64 µg/mL | MIC of amoxicillin plus inhibitor [12]: 128 µg/mL | MIC of amoxicillin plus inhibitor [13]: 512 µg/mL | MIC of amoxicillin plus inhibitor [14]: 512 µg/mL | MIC of ceftazidime plus inhibitor ([2]; Table 3A, AmpC-MHN, proportion 4/1, given as CAZ/inhibitor): 4/1 | MIC of amoxicillin plus inhibitor ([2]; Table 4A, EC-AmpCEn, proportion 4/1): 32 µg/mL | MIC of ceftazidime plus inhibitor [3]: 256/64 | Ki ([15]; Tables 2A/2B, pH 7.0, 25° C., 100 μM cephalothin, read-out: Ki E. coli AmpC): 1.1 µM | MIC of ceftazidime plus inhibitor ([6]; Ent. Der.): 32/8 | MIC of amoxicillin plus inhibitor ([6]; Table 4A, Ent-Der., proportion 4/1): 256 µg/mL | Ki ([16]; Tables 2A/2B, pH 7.0, 25° C., 100 μM FAP, N.I. = no inhibition observed at an inhibitor concentration of 100 μM, read-out: Ki E. coli TEM-1): 27 µM

CN(C)c1cccc2c(S(=O)(=O)Nc3cccc(B(O)O)c3)cccc12 [NSULFB, m-(dansylamidophenyl)-boronic acid, reference compound]
Ki ([15]; Ki E. coli AmpC): 1.6 µM | inhibitor of Enterobacter cloacae P99 β-lactamase (in words) [17]: submicromolar | Ki [16]: 88 µM
